The source of these data is PMC2680961, “Homologous desensitization of signalling by the alpha (α) isoform of the human thromboxane A2 receptor: A specific role for nitric oxide signalling” (Biochimica et Biophysica Acta, 2007).

The subject of one series is eNOS. Nature of the series: eNOS phosphorylation (anti-phospho eNOS^Ser1177 western blot). In kind it is cell-based, human. As to conditions: HEK.TPα cells (also HEK 293, HEK.TPβ); 1 μM U46619 or 10 U/ml Thrombin, 5 min, 37 °C. The method, then: In order to assess eNOS phosphorylation, HEK.TPα, HEK.TPβ or HEK 293 cells (2 × 10^6 cells/10-cm dish) were plated some 48 h prior to experimentation. Cells were incubated with vehicle, 1 μM U46619 or 10 U/ml Thrombin for 5 min at 37 °C and aliquots of whole cell protein (100 μg/lane) were analysed by SDS-PAGE/western blot. Blots were initially screened using the anti-phospho eNOS^1177 as per supplier's instructions (Cell Signalling Technology) and, following stripping, were subsequently re-screened using the anti-eNOS (Transduction Laboratories).

A further series concerns the target T1, TPα^S331A (Homo sapiens, UniProt P21731, S331A).
T1 construct: expressed in transfected cells
T1 sequence (P21731 1-343 S331A): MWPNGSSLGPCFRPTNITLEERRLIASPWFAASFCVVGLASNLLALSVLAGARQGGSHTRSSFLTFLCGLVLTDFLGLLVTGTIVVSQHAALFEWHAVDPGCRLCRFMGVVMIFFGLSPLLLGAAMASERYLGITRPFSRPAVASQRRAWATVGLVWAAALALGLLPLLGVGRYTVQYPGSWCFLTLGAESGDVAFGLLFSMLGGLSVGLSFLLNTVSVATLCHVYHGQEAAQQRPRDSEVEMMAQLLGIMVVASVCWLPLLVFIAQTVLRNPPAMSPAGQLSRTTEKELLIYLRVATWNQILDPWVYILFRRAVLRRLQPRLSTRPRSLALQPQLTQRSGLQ
Description: Agonist-mediated TP phosphorylation in whole cells, HEK.TPα^S331A. In kind it is cell-based. As for the experimental part: (§1) Agonist-mediated TP phosphorylation in whole cells (1.8–2 × 10^6 cells/10 cm dish) was performed essentially as previously described. Briefly, cells were transiently co-transfected with pADVA (10 μg), pCMV:Gαq (25 μg) plus pcDNA:βArrestin2 (25 μg) approximately 48 h prior to labelling. Thereafter, cells were washed once in phosphate-free DMEM, 10% dialysed FBS and were metabolically labelled for 60 min in the same medium (2 ml/10 cm dish) containing 100 μCi/ml [^32P] orthophosphate (8000–9000 Ci/mmol) at 37 °C, 5% CO2. Where appropriate, the PKG kinase inhibitor KT 5823 (50 nM) or its vehicle was added during the labelling period. Thereafter, U46619 (1 μM) or an equivalent volume of vehicle (0.01% ethanol in HBS; 20 μl) were added and cells were incubated for 10 min at 37 °C, 5% CO2. Reactions were terminated by transferring the dishes to ice and aspirating the labelled medium and HA-epitope tagged TP receptors were processed and immunoprecipitated using the anti-HA 101R antibody as previously described. Electroblots were then exposed to Xomat XAR (Kodak) film to detect ^32P-labelled proteins. Thereafter, blots were subject to phosphorimage analysis, and the intensities of agonist-induced phosphorylation were expressed in arbitrary units relative to basal (vehicle-stimulated) levels. In parallel experiments, cells were incubated under identical conditions in the absence of [^32P] orthophosphate; HA-tagged TP receptors were immunoprecipitated from the same cell lines using the anti-HA 101R antibody and immunoblots were screened using the anti-HA 3F10 horseradish peroxidase-conjugated antibody.

Another series deals with T2, TPβ (Homo sapiens, UniProt P21731).
T2 construct: expressed in transfected cells
T2 sequence (P21731 1-407 isoform P21731-2): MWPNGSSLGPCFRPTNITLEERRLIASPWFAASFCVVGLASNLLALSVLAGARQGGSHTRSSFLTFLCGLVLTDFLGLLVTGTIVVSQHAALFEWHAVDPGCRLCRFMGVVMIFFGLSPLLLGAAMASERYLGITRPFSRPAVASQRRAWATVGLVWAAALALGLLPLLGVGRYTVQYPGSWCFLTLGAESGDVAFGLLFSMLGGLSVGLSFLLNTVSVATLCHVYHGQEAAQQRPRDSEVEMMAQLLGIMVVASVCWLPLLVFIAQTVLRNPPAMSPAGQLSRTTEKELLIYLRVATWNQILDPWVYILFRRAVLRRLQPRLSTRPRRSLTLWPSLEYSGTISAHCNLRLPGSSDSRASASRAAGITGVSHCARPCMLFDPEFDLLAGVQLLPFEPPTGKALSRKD
Nature of the series: Intracellular calcium mobilization, HEK.TPβ cells. The class given is cell-based. A general note: Calcium assays in cells follow changes in intracellular calcium, usually with a dye or a luminescent sensor.

Series [1] has as its target T3, TPα (Homo sapiens, UniProt P21731).
T3 construct: expressed in transfected cells
T3 sequence (P21731 1-343): T1 sequence (P21731 1-343 S331A) with A331S
Nature of the series: Agonist-mediated TP phosphorylation in whole cells, HEK.TPα. The class given is cell-based. As for the experimental part: as §1

In series [2] the target is T3, TPα. Description: Intracellular calcium mobilization, HEK.TPα cells. In kind it is cell-based. To be noted: for Δ[Ca2+]i, U46619-induced: HEK.TPα. As for the experimental part: Measurement of intracellular calcium mobilization ([Ca^2+]i) in FURA2/AM preloaded HEK 293 cell lines (2 × 10^6 cells/dish), each transiently co-transfected with pADVA (10 μg), and pCMV:Gαq (25 μg), was carried out as previously described. To investigate the effect of GRK2/βARK1 on TP-mediated [Ca^2+]i mobilization, HEK.TPα or HEK.TPβ cells (2 × 10^6 cells/dish) were co-transfected with pADVA (10 μg), pCMV:Gαq (25 μg) along with pRK5:βARK1^495–689 (25 μg), encoding a dominant negative form of GRK2/βARK1[39]. Approximately 48 h post-transfection, cells were harvested by scraping, washed twice in ice-cold PBS and resuspended in HBSSHB (modified Ca^2+/Mg^2+-free Hank's buffered salt solution, containing […], pH 7.67, 0.1% bovine serum albumin (BSA)) buffer at 10^7 cells/ml and incubated in the dark with 5 μM FURA2/AM for 45 min at 37 °C. Cells were collected by centrifugation (900×g, 5 min), washed once in an equal volume of HBSSHB, and were finally resuspended in HBSSHB buffer at 10^7 cells/ml and kept at room temperature in the dark for 40 min. For each measurement of [Ca^2+]i mobilization, aliquots of cells were diluted to 0.825 × 10^6 cells/ml in HBSSHB, 1 mM CaCl2 and FURA2 fluorescence was recorded (2 ml aliquots of cells) at 37^ °C with gentle stirring with a Perkin Elmer-Cetus LS50-B spectrofluorometer at excitation wavelengths of 340 nm and 380 nm and emission wavelength of 510 nm, respectively.
[…] To assess agonist-mediated homologous desensitization, cells (0.825 × 10^6 cells/ml; 2 ml per assay) were stimulated with 1 μM U46619 (Primary stimulation) or, as a control, with the vehicle for 4 min; thereafter, cells were collected by centrifugation (900×g, 5 min); were washed twice in 2 ml HBSSHB, 1 mM CaCl2; and finally resuspended in 2 ml HBSSHB,1 mM CaCl2 and were left to recover over various time intervals (ranging from 0 to 60 min); thereafter, cells re-stimulated with 1 μM U46619 (Secondary stimulation) and changes in [Ca^2+]i mobilization were monitored as a function of time. To assess the role of protein kinase (PK) A, PKC or PKG on U46619-mediated desensitization of TPα signalling, cells were pre-incubated with the PKA inhibitor H-89 (10 μM), the PKC inhibitor GF 109203X (50 nM) or the PKG inhibitor KT 5823 (50 nM), for 15 min and respective kinase inhibitors were maintained throughout the primary/secondary U46619-stimulations and during the washes.
The vehicle had no effect on U46619-mediated [Ca^2+]i mobilization. Calibration of the signal was performed in each sample by adding 0.2% Triton X-100 to obtain the maximal fluorescence ratio (Rmax) and then 1 mM EGTA to obtain the minimal fluorescence ratio (Rmin). The ratio of the fluorescence at 340 nm to that at 380 nm is a measure of [Ca^2+]i, which assumes a Kd of 225 nM Ca^2+ for FURA2/AM. The results presented in the figures are representative data from at least three or four independent experiments and are plotted as changes in Ca^2+i mobilized (Δ[Ca^2+]i (nM)) as a function of time (s) upon ligand stimulation. Changes in [Ca^2+]i mobilization were determined by measuring peak rises in [Ca^2+]i mobilized (Δ[Ca^2+]i) and were calculated as mean changes in Δ[Ca^2+]i ± S.E.M. (nM).

Details of series [3]: method as in PMID 10508233. As to conditions: rapidly hydrolysed to inactive metabolite TXB2; estimated; cited from earlier work.
Setting [4] is: 1 μM U46619 plus 50 nM KT 5823 pre-incubation.
Where [5] appears, read: primary 1 μM U46619 in presence of 50 nM KT 5823.
The mark [6] stands for this setting: secondary 1 μM U46619 at 15 min in presence of 50 nM KT 5823.

The term half-life denotes how long it takes for the measured level to halve.

Numbering of substitutions follows the chain as printed.

Take thrombin: the “eNOS phosphorylation at Ser^1177” value with eNOS is listed as “readily lead to eNOS phosphorylation”.
For the compound `COC(=O)[C@@]1(OC)C[C@H]2O[C@]1(C)n1c3ccccc3c3c4c(c5c6ccccc6n2c5c31)C(=O)N(C)C4` [KT 5823], at TPα^S331A (setting [4]), the “U46619-mediated TPα^S331A phosphorylation relative to basal (vehicle)” value came to 1.5 fold. Further, the “effect on agonist-induced phosphorylation of TPα^S331A” value at TPα^S331A (preincubation with KT 5823) is listed as “not significantly affected”. For the same compound, at TPβ (inhibitor pre-incubated 15 min, primary/secondary U46619 stimulation), the “effect of inhibitor on U46619-induced [Ca2+]i mobilization by TPβ” value is reported as “no significant effect”. For the same compound, the “Δ[Ca2+]i, U46619-induced” value on TPβ (setting [5]) was 170 ± 25 nM; at TPβ (setting [6]), 0 nM; at TPα [2] (setting [5]), 160 ± 7.9 nM; at TPα [2] (setting [6]) it was 60 ± 7 nM. Also, the “U46619-mediated TPα phosphorylation relative to basal (vehicle)” value on TPα [1] (setting [4]) is listed as 2 fold. For the same compound, the “reduction of agonist-induced TPα phosphorylation” value at TPα [1] (pre-incubation with KT 5823, 1 μM U46619) is 2.5 fold. Further, the “secondary U46619 [Ca2+]i response relative to primary response” value on TPα [2] (TPα, in presence of KT 5823 (50 nM)) is listed as “approximately 38%”.
Turning to `CCCCC[C@H](O)/C=C/[C@H]1O[C@H]2C[C@H](O2)[C@@H]1C/C=C\CCCC(=O)O` [TXA2], the half-life in series [3] was 30 s.
